Reference: paper PMC5318461 (Frontiers in Microbiology, 2017)
Like-named read-outs stand apart in the source and are kept apart here. Numbered stars: 1 amine (or outer) side, 2 acyl side, 3 side chain; on linkers, the order of the positions; unused ones are H or OH. Bridge positions count the residues as written; N and C are the ends. Square brackets hold non-standard residues; d marks the D form. Peptide text beside a SMILES is read from it. I, II: the chains in the order shown. Actinocin(9to1) = Cc1c2oc3c(C)ccc(C(=O)[*:1])c3nc-2c(C(=O)[*:2])c(N)c1=O; NMeV = CN[C@H](C(=O)O)C(C)C; Sar = CNCC(=O)O

Tests used:
[1] = test system: Leishmania amazonensis promastigote; assay: In vitro activity against L. amazonensis promastigotes (growth inhibition by cell counting; drugs alone and in checkerboard combination); type: cell-based; settings: isolated drug; for IC50: 72 h, 25°C, ± SD; for IC90: promastigotes
Description: Leishmania amazonensis MHOM/BR/75/Josefa strain was isolated from a human case of cutaneous leishmaniasis by Dr. Cesar A. Cuba, at University of Brasilia, Brazil ([Saraiva et al., 1983]; [Cuba et al., 1985]). These promastigote parasites were maintained in Warren’s medium, consisting of brain heart infusion (Gibco®), hemin (Sigma–Aldrich®), and folic acid (Sigma–Aldrich®), pH 7.2, supplemented with 10% of fetal calf serum (FCS – Invitrogen®) and incubated at 25°C.
The same procedure was carried out with axenic amastigote forms, using 12-wells microplate. After incubation during 72 h, at 25 and 32°C for promastigote and axenic amastigote forms, respectively, viable cells were counted with hemocytometer supporting.
Briefly, promastigotes, axenic and intracellular amastigotes were prepared even as previously described (see the section In vitro Activity against L. amazonensis) as well the macrophages and erythrocytes, according to the section Cytotoxicity and Hemolysis Assays. […] Thus, the compounds were singly evaluated in the first row and column and the checkerboard model supported the drug combination in the other wells. Next, the parasites were added and, after incubation, as described above, it was possible to determine the IC50 for the association. Finding the behavior of each association, the CI was calculated from the formula:
CI=(IC50 compound A associated/IC50 compound A alone)+(IC50 compound B associated/IC50 compound B alone)
CI values lower, equal and greater than one indicate, respectively, synergistic, additive and antagonistic profile of association tested, according established by [Chou and Talalay (1984)] and [Chou (2010)].
(§1) Scanning electron microscopy was carried out to analyze the morphologic alterations on cell surface topography. […] After incubation for 72 h, at 25°C, the samples were fixed in 2.5% glutaraldehyde in 0.1 M sodium cacodylate buffer (Electron Microscopy Sciences – EMS®) for 24 h. It used poly-L-lysine (Electron Microscopy Sciences – EMS®) to promote the fixed parasites adhesion over coverslips, which were dehydrated with increasing concentration of ethanol (30, 40, 50, 60, 70, 80, 90, 95, 100% – Sigma–Aldrich®). The samples were critical-point-dried (Baltec SCD-030) in CO2 to remove any water trace, placed on appropriate stub to coat with gold alloy. The micrographs were obtained by analysis in Shimadzu SS-550 scanning electron microscope (SEM).

[2] = test system: Leishmania amazonensis axenic amastigote; assay: In vitro activity against L. amazonensis axenic amastigotes (growth inhibition by cell counting; alone and checkerboard combination); type: cell-based; settings: isolated drug, 72 h, 32°C, ± SD
Description: Axenic amastigote forms were obtained from L. amazonensis promastigotes. For this, promastigote forms in phase log of growth were cultivated in Warren’s medium, pH 7.2, supplemented with 20% FCS and incubated at 25°C, during 48 h. Next, the parasites were maintained at 30°C, for 24 h, and at 32°C until differentiation in amastigote forms. Axenic amastigotes were maintained in Schneider insect’s medium (Sigma–Aldrich®), pH 4.6, supplemented with 20% of FCS, at 32°C ([Ueda-Nakamura et al., 2001]).

[3] = test system: L. amazonensis intracellular amastigotes; assay: Activity against L. amazonensis intracellular amastigotes in peritoneal macrophages (survival index; alone and checkerboard combination); type: cell-based, Leishmania amazonensis; settings: isolated drug, 48 h, ± SD, read-out: IC50 Intracellular amastigote
Description: Furthermore, the activity of these drugs against L. amazonensis intracellular amastigotes was also evaluated. For this, intraperitoneal macrophages were harvested from the males BALB/c mice, by injection of cold phosphate-saline buffer (PBS) plus FCS 3% inner the peritoneal cavity. After centrifugation, a suspension of 5 × 10^5 macrophages in RPMI was placed on glass coverslips in 24-wells microplate and incubated during 2 h, at 37°C and 5% CO2 atmosphere, for cellular adhesion. After this period, the wells were washed and the macrophages were infected with L. amazonensis promastigotes in stationary phase (5–6 days) at a ratio of 7 parasites/1 mammalian cell, during 4 h, at 34°C and 5% CO2 tension and then, the tested compounds were added during 48 h ([Kaplum et al., 2016]). At the end of this period, the glass coverslips were subject to fixation with methanol during 10 min and stained with 10% Giemsa stain (GIBCO KaryoMax® Giemsa), for 40 min. Then, a total of 200 macrophages were counted under light microscope, distinguishing infected cells and amastigote parasites. Thereby, the survival index (SI = infected cells percentage × amastigote average per infected macrophage) was calculated considering 100% of survival for the untreated negative control (NC). It was subsequently possible to carry out the comparison with samples treated for IC50 calculation purposes.

[4] = test system: J774.A1 macrophages; assay: Cytotoxicity on J774.A1 macrophages (MTT; alone and checkerboard combination); type: cell-based, Murine; settings: isolated drug, 48 h, ± SD, read-out: CC50 J774.A1 Macrophage
Source text: (§2) As positive control, it used Triton X (Synth®) surfactant. […] (2010)].

[5] = test system: peritoneal macrophages infected with L. amazonensis; assay: Nitric oxide measurement (DAF-FM DA) on infected macrophages; type: cell-based, BALB/c mice; settings: IC50 and IC90, 48 h, 34°C
Description: Furthermore, the activity of these drugs against L. amazonensis intracellular amastigotes was also evaluated. For this, intraperitoneal macrophages were harvested from the males BALB/c mice, by injection of cold phosphate-saline buffer (PBS) plus FCS 3% inner the peritoneal cavity. After centrifugation, a suspension of 5 × 10^5 macrophages in RPMI was placed on glass coverslips in 24-wells microplate and incubated during 2 h, at 37°C and 5% CO2 atmosphere, for cellular adhesion. After this period, the wells were washed and the macrophages were infected with L. amazonensis promastigotes in stationary phase (5–6 days) at a ratio of 7 parasites/1 mammalian cell, during 4 h, at 34°C and 5% CO2 tension and then, the tested compounds were added during 48 h ([Kaplum et al., 2016]). […] Then, a total of 200 macrophages were counted under light microscope, distinguishing infected cells and amastigote parasites. Thereby, the survival index (SI = infected cells percentage × amastigote average per infected macrophage) was calculated considering 100% of survival for the untreated negative control (NC). […]
Promastigote forms and infected macrophages were incubated at 25°C for 72 h and 34°C for 48 h, respectively. […] Fluorescence was measured on fluorometer Perkin-Elmer Victor X3, at λex = 495 nm and λem = 515 nm.

[6] = test system: non-infected macrophages; assay: Nitric oxide measurement (DAF-FM DA) on non-infected macrophages; type: cell-based; settings: IC50 and IC90
[7] = test system: L. amazonensis promastigote; assay: Detection of lipid droplets using Nile Red dye (fluorometry); type: cell-based, Leishmania amazonensis
Description: Parasites were prepared and standardize in accordance to item 2.8.1. Next, 5 μL of Nile Red (Sigma–Aldrich®) 1 mg/mL methanol were added to treated parasites and incubated during 30 min, at dark and room temperature. Fluorescence was measured on Perkin-Elmer Victor X3 fluorometer, at λex = 485 nm e λem = 535 ([Greenspan et al., 1985]). Nile Red is a phenoxazone dye that fluoresces intensely at yellow–gold color in the presence of triacylglycerols, cholesterol, or cholesterol esters, considered neutral lipids ([Fowler and Greenspan, 1985]).

[8] = test system: L. amazonensis promastigote; assay: Transmission electron microscopy of treated promastigotes; type: cell-based, Leishmania amazonensis; settings: IC50 and IC90, 72 h, 25°C
Description: In order to evaluate the ultrastructure changes in the treated parasites, promastigote forms were treated and fixed according described above. These samples were post-fixed with 1% OsO4 (Electron Microscopy Sciences – EMS®) and 0.8% potassium ferrocyanide (Electron Microscopy Sciences – EMS®), in the dark, during 60 min, at room temperature. This procedure increases the contrast to link with lipids. The samples were washed in 0.1 M sodium cacodylate buffer and dehydrated in increased concentration of acetone (50, 70, 80, 90, 95, 100% – Sigma–Aldrich®). All acetone content was replaced by cell diffusion for EPON^TM epoxy resin, gradually, and after 48 h, at 60°C, the resin was polymerized. Nanometric cuts (60–70 nm) were obtained on ultramicrotome (Power Tome X RMC Products), contrasted with 5% uranyl acetate (Electron Microscopy Sciences – EMS®) and 2% lead citrate (Electron Microscopy Sciences – EMS®). Finally, the samples were analyzed by transmission electron microscope (TEM) JEOL – JEM 1400.

[9] = test system: L. amazonensis promastigote; parameters: method as in Britta et al. (2014); settings: ref Britta et al. (2014); cited from earlier work
[10] = test system: L. amazonensis promastigote; parameters: method as in Britta et al. (2014); settings: ref Britta et al. (2014); cited from earlier work; remark: listed apart in the source
[11] = test system: erythrocytes; assay: Hemolysis assay (hemoglobin release; alone and checkerboard combination); settings: read-out: CC50 Erythrocytes; isolated drug; defibrinated sheep blood, 6% erythrocyte suspension, 2 h, 37°C; ± SD
Description: (§3) Assessing the possibility of drug-induced hemolysis, the hemolytic activity was evaluated in vitro from defibrinated sheep blood, commercially obtained (Laborclin; lot n° 51109038). Erythrocyte suspension at 6% was prepared by centrifugation in 2,000 × g, for 10 min and placed in 96-wells with the different concentrations of each compound. As positive control, it used Triton X (Synth®) surfactant. After 2 h at 37°C, all samples were centrifuged for 3 min, and the supernatant was harvested to verify the hemoglobin release by the absorbance measured in 540 nm.

[12] = test system: L. amazonensis promastigote; assay: Volume analysis of promastigote forms, flow cytometry (FSC-H); type: cell-based, Leishmania amazonensis; settings: 24 h; miltefosine 173.32 μM; BZTS + miltefosine 13.86 μM + 37.78 μM; actinomycin D positive control
Description: For these studies, the treated protozoa were incubated during 24 h, at 25°C.
After to treat 1 × 10^7 promastigote forms with […] actinomycin D (positive control – Sigma–Aldrich®), isolated miltefosine and BZTS with miltefosine, the samples were washed two times with PBS 0.01 M and incubated. Cell volume was measured on BD FACSCalibur flow cytometer and 10,000 events were analyzed by CellQuest Pro software.

[13] = Cytotoxicity on J774.A1 macrophages (MTT; alone and checkerboard combination); type: cell-based, Murine; settings: mouse, J774.A1 macrophages, pH 7.6, isolated drug, ± SD, read-out: CC50 J774.A1 Macrophage
Source text: as §2

[14] = Hemolysis assay (hemoglobin release; alone and checkerboard combination); settings: sheep, 6% erythrocyte suspension from defibrinated sheep blood
Description: as §3

[15] = test system: L. amazonensis promastigote; assay: Phosphatidylserine exposure (Annexin-V-FITC / PI), flow cytometry; type: cell-based, Leishmania amazonensis; settings: 24 h; miltefosine 173.32 μM; BZTS 13.86 μM + miltefosine 37.78 μM; CCCP 100 μM
Description: For these studies, the treated protozoa were incubated during 24 h, at 25°C. […] At the end of 24 h, the samples were washed in 0.01 M PBS and resuspended in 100 μL of binding buffer (140 mM NaCl; 5 mM CaCl2; 10 mM HEPES-Na; pH 7.4), followed by the addition of 5 μL of the Annexin-V-FITC conjugated (Molecular Probes®). After 15 min of incubation, 400 μL of binding buffer and 50 μL of PI were added. […] Data acquisition (10,000 events) and analysis were carried out on flow cytometer BD FACSCalibur, equipped with CellQuest Pro software. Necrosis processes were identified by PI fluorescence in the cells while apoptotic cells were labeled with Annexin-V-FITC, regardless of the PI behavior.

[16] = test system: L. amazonensis promastigote; assay: Cell membrane integrity by propidium iodide, flow cytometry; type: cell-based, Leishmania amazonensis; settings: 24 h, 25°C; miltefosine 173.32 μM; BZTS + miltefosine 13.86 μM + 37.78 μM; digitonin 40 μM
Description: For these studies, the treated protozoa were incubated during 24 h, at 25°C. L. amazonensis promastigote cells were prepared according item 2.7. After incubation, the samples were washed in PBS 0.01 M and incubated with 50 μL of propidium iodide (PI – Sigma–Aldrich®) 2 mg/mL at 25°C, for 5 min. Membrane rupture allows the entrance of PI and its binding to cell DNA. Cell membrane integrity was measured according PI fluorescence, on BD FACSCalibur flow cytometer, in which 10,000 events were evaluated by CellQuest Pro software. Digitonin saponin 40 μM (Sigma–Aldrich®) was used as positive control and the fluorescence measurement were compared with NC fluorescence.

[17] = test system: L. amazonensis promastigote; assay: Mitochondrial transmembrane potential (rhodamine 123), flow cytometry; type: cell-based, Leishmania amazonensis; settings: 24 h; 2 × IC90
Description: For these studies, the treated protozoa were incubated during 24 h, at 25°C. Parasites were prepared according 2.7.1 item, including positive control. […] At the same way described above, 10,000 events were evaluated on flow cytometer BD FACSCalibur and the data were analyzed by CellQuest Pro software.

[18] = test system: L. amazonensis promastigote; assay: Scanning electron microscopy of treated promastigotes; type: cell-based, Leishmania amazonensis; settings: IC50 and IC90, 72 h, 25°C
Description: as §1

Compound: 4-nitro benzaldehyde thiosemicarbazone derived from S-(-)-limonene [BZTS]
- IC50 [1]: 4.16 ± 0.78 µM
- IC90 [1]: 13.9 µM
- IC50 [2]: 8.04 ± 0.37 µM
- IC50 [3]: 6.99 ± 1.22 µM
- CC50 [4]: 87.5 ± 9.07 µM
- NO production, infected macrophages [5]: only in higher concentrations
- NO production, non-infected macrophages [6]: induced the NO production
- Lipid droplets (Nile Red fluorescence) vs NC ([7]; treated at IC50, 24 h): statistical significance
- Lipid droplets (Nile Red fluorescence) vs NC ([7]; treated at IC90, 24 h): statistical significance
- Ultrastructure changes by TEM [8]: mitochondrion alterations, like swelling and concentric membranes inner mitochondria
- cell volume after BZTS treatment [9]: cell volume decrease
- Annexin-V-FITC after BZTS treatment [10]: positive results
- CC50 [11]: > 500 µM

Compound: Cc1c2oc3c(C)ccc(C(=O)N[C@@H]4C(=O)N[C@H](C(C)C)C(=O)N5CCC[C@H]5C(=O)N(C)CC(=O)N(C)[C@@H](C(C)C)C(=O)O[C@@H]4C)c3nc-2c(C(=O)N[C@@H]2C(=O)N[C@H](C(C)C)C(=O)N3CCC[C@H]3C(=O)N(C)CC(=O)N(C)[C@@H](C(C)C)C(=O)O[C@@H]2C)c(N)c1=O [Actinomycin D] (I: T[dV]P[Sar][NMeV] / II: T[dV]P[Sar][NMeV]; ester I:1-I:C, II:1-II:C; linker I:N-II:N via Actinocin(9to1))
- cells with volume reduction compared to untreated parasites [12]: 51.95%

Compound: C[C@@H]1[C@H](O)[C@@H](C)/C=C/C=C/C=C/C=C/C=C/C=C/C=C/[C@H](O[C@@H]2O[C@H](C)[C@@H](O)[C@H](N)[C@@H]2O)C[C@@H]2O[C@](O)(C[C@@H](O)C[C@@H](O)[C@H](O)CC[C@@H](O)C[C@@H](O)CC(=O)O[C@H]1C)C[C@H](O)[C@H]2C(=O)O [Amphotericin B]
- IC50 ([2]; Leishmania amazonensis): 0.43 ± 0.19 µM
- CC50 at 48 h [13]: 3.74 ± 0.59 µM
- CC50 at 2 h [14]: 51.8 ± 4.34 µM

Compound: N#CC(C#N)=NNc1cccc(Cl)c1 [CCCP, carbonyl cyanide 3-chlorophenylhydrazone]
- cells in late apoptotic process, Annexin-V-FITC and PI fluorescence (upper right quadrant) [15]: 39.98%
- cells with only Annexin-V-FITC label (lower right quadrant) [15]: 5.25%

Compound: CCCCCCCCCCCCCCCCOP(=O)([O-])OCC[N+](C)(C)C [Miltefosine, hexadecyl-phosphocholine]
- IC50 ([1]; Leishmania amazonensis): 20.8 ± 0.25 µM
- IC90 ([1]; Leishmania amazonensis): 86.7 µM
- IC50 ([2]; Leishmania amazonensis): 0.79 ± 0.48 µM
- IC50 ([3]; Leishmania amazonensis, Peritoneal macrophage): 1.82 ± 0.2 µM
- CC50 at 48 h [13]: 55.1 ± 1.97 µM
- PI fluorescence (cells that lost plasma membrane integrity) [16]: 81.18%
- cells with volume reduction compared to untreated parasites [12]: 10.45%
- Rh 123 fluorescence intensity (in words) [17]: strong decrease
- NO production, infected macrophages [5]: NO production increased from low concentration
- NO production, non-infected macrophages [6]: induced the NO production
- Lipid droplets (Nile Red fluorescence) vs NC ([7]; treated at IC90, 24 h): statistical significance
- Morphologic alterations by SEM [18]: changes on surface cell and reduction of the flagellum length
- Ultrastructure changes by TEM [8]: Disruption of cytoplasmic membrane
- CC50 at 2 h [14]: 21.4 ± 0.75 µM
